In patent US20210128554A1, “ANTI-FLAVIVIRIDAE ACTIVITY OF ANTI-RETROVIRAL NON-NUCLEOSIDE (NNRTIS) AND NUCLEOSIDE REVERSE TRANSCRIPTASE INHIBITORS (NNRTIS)” (priority 2016, published 2021):

System: Zika virus
Test: ZIKV copy numbers released by primary human fetal astrocytes treated with NNRTIs (Real-time Q-RT-PCR)
Format: cell-based
Conditions: ZIKV 0.1 MOI, 5, 10, and 25 μM at 24, 48, 72 hrs, culture media at 96 hrs
Protocol: FIG. 6 is a graph showing that Zika virus replication is suppressed by antiretroviral HIV-1 non-nucleoside reverse transcriptase inhibitors (NNRTIs) in primary astrocytes: Primary human fetal astrocytes were plated in 6 well tissue culture dishes and infected with ZIKV at 0.1 MOI. At 24, 48, and 72 hrs post-infections, cells were treated with increasing concentrations of anti-retroviral non-nucleoside reverse transcriptase inhibitors Rilpivirine, Efavirenz, and Etravirine at 5, 10, and 25 μM concentrations. Culture media of the infected cells were collected at 96 hrs post-infections and subjected to Real-time Q-RT-PCR for the detection and quantification of ZIKV copy numbers released by infected cells.

| SMILES | Zika virus replication (ZIKV copy numbers released by infected cells) |
| --- | --- |
| O=C1Nc2ccc(Cl)cc2[C@@](C#CC2CC2)(C(F)(F)F)O1 [Efavirenz] | suppressed |
| Cc1cc(C#N)cc(C)c1Oc1nc(Nc2ccc(C#N)cc2)nc(N)c1Br [Etravirine] | suppressed |
